According to US20070225245A1, “Viral vector driven mutant bacterial cytosine deaminase gene and uses thereof” (priority 1998, published 2007):
In brackets after ≈: the same amount, converted by molar mass.

Key:
[1] = tested on: Intracranial U87MG Human Gliomas; test: Survival, intracranial glioma, intratumoral Ad and systemic 5-FC; format: in vivo, SCID mice; settings: for Survival 20% / Survival Median: Saline (no virus) + 5-FC
Protocol: (§1) U87MG and D54MG cells (5×10^5) were stereotactically injected into the right frontal cortex of SCID mice. Tumors were established for 5 days before intratumoral injection of AdCMVCD (10^8 or 10^9 pfu/mouse). Mice were then treated IP with 5-FC (500 mg/kg bid) on days 2-9 post infection and monitored for survival. Kaplan-Meier survival curves and median and 20% survival values were calculated by standard methods.
U87MG cells (5×10^5), the stringent glioma model, were stereotactically injected into the right frontal cortex of SCID mice. Tumors were established for 5 days before intratumoral injection of AdE1ACD or AdCMVCD (10^8 or 10^9 pfu/mouse). Mice were then treated IP with 5-FC (500 mg/kg bid) on days 2-9 post infection and monitored for survival. Kaplan-Meier survival curves and median and 20% survival values were calculated by standard methods.

[2] = tested on: intracranial U251MG gliomas; test: as above; format: in vivo, SCID mice; settings: no virus/5-FC
Protocol: as §1
Additional experiments were performed on intracranial tumors derived from all three glioma models. […] Similar results were obtained with SCID mice bearing intracranial U87MG gliomas (AdE1ACD/5-FC 84 days, AdE1ACD/saline 49 days, no virus/5-FC 57 days, p<0.01; Table II and Table 12).

[3] = tested on: Intracranial D54MG Human Gliomas; test: as above; format: in vivo, SCID mice; settings: Table 7; Saline (no virus) + 5-FC
Protocol: as §1

[4] = tested on: human pancreatic cancer cells; settings: Uninfected cells; 5-FC at 764 μg/ml
Protocol: To measure the cytotoxicity of 5-FU and 5-FC, glioma cells or pancreatic cancer cells were plated into 96-well tissue culture plates at 5×10^3 cells/well, and allowed to adhere overnight. Next day, serial dilutions of 5-FU or 5-FC were added directly to cells. Cells were incubated for 5 days, and relative cell density was determined using a crystal violet staining assay. Cell culture medium was removed and surviving cells were then fixed and stained with 2% (w/v) crystal violet (Sigma-Aldrich) in 70% ethanol for 3 h at room temperature. The plates were washed extensively, air-dried and optical density was measured at 570 nm using a V Max plate reader (Molecular Devices Corporation, Sunnyvale Calif.). Fractional cell survival at each drug concentration was calculated as the ratio of absorbance at 570 nm of cells incubated in the presence versus absence of drug, corrected for background absorbance of media alone. Fractional cell survival data were plotted against drug concentration and IC50 values extrapolated by piecewise linear regression as the concentration of drug producing a 50% reduction in corrected absorbance.

[5] = tested on: intracranial D54MG tumors; test: Intracranial survival study; format: in vivo, athymic nude mice; settings: for median survival time: FIG. 5
Protocol: D54MG human glioma cells (0.5×10^6 cells/mouse) were injected into the right frontal cortex of athymic nude mice (10 mice/group). Six days after tumor implantation (Day 0), a single dose of saline or 3.2×10^7 TCID50 AdCD-D314A was injected i.t. Mice then received 5 Gy fractions of radiation treatment on Days 1, 3, and 7 and 5-FC (500 mg/kg i.p. twice daily on Days 0-4, and 7-11) or saline and were subsequently monitored for survival.
D54MG human glioma cells (0.5×10^6 cells/mouse) were injected into the right frontal cortex of athymic nude mice (10 mice/group). Five days after tumor implantation, a single dose of PBS or 3.2×10^7 TCID50 AdbCD-D314A was injected i.t. on Day 5 Mice then received radiation treatment on Days 6, 9 and 13 at 2 or 5 Gy and 5-FC (500 mg/kg i.p. q2d×5/week for 3 weeks) and were subsequently monitored for survival.
D54MG tumors were established intracranially in athymic nude mice as described. Briefly, mice were anesthetized by i.p. administration of ketamine (20 mg/ml) and xylazine (0.3 mg/ml) in saline at 0.07 ml/10 g of body weight. A midline scalp incision was made, and a 0.5-mm burr hole was drilled 1.5-2.0 mm to the right of midline and 1 mm anterior to the coronal suture. D54MG cells were injected stereotactically at 0.5×10^6 cells (1×10^8/ml), using a 250 μl Hamilton syringe with a prepared 30 gauge needle mounted in a Stoelting stereotaxic apparatus. A plastic sleeve surrounding the needle allowed reproducible injections of tumor cells, saline or Ad to a depth of 2.5 mm. The needles were left in place for 2 min to minimize reflux of the tumor cells along the needle track. The scalp wounds were closed with Tissu-Mend glue to avoid scatter dose from metallic wound clips during radiation treatment. The mice were placed on a heating pad in sterile microisolator polycarbonate cages and allowed to awaken from anesthesia. Tumors were allowed to grow for 6 days before the start of treatment (Day 0). Animals were randomly divided into groups receiving different treatments: 3.2×10^7 TCID50 AdbCD-D314A in 10 μl saline; AdbCD-D314A in combination with radiation; AdbCD-D314A plus 5-FC; AdbCD-D314A plus 5-FC in combination with radiation, intratumoral saline followed by intraperitoneal 5-FU and intratumoral saline plus 5-FC and radiation. On the day after AdbCD-D314A injection, mice were treated i.p. with either saline or 5-FC twice daily at 500 mg/kg on Days 0 to 4, and 7 to 11 and monitored daily for survival. Radiation therapy consisted of 15 Gy ^60Co delivered in 5 Gy fractions to the whole brain, on Days 1, 3 and 7. Irradiated mice were immobilized in individual Lucite chambers with their heads positioned in an 8×32 cm collimated field. Animals were shielded with 3 cm of lead placed over the chamber, extending from behind the ears to the tail.

U118MG = test: 5-FU toxicity, MTS assay; format: cell-based; settings: Homo sapiens, U-118-MG, 120 h, 5 days
Protocol: (§2) Tumor cells (5×10^4) were plated in 96 well plates and allowed to adhere overnight. Cells were then incubated continuously in the presence of increasing concentrations of 5-FU (0-200 μg/ml) and assayed for toxicity using an MTS assay (Promega, Madison Wis.) after 5-days. ICx values were calculated as previously described. U251MG glioma cells were as sensitive to 5-FU as LS174T and WiDR colon carcinoma cells, while D54MG, U87MG and U118MG glioma cells and AsPC-1 pancreatic carcinoma cells were 3-fold less sensitive (Table 2).

U87MG = test: 5-FU toxicity, MTS assay; format: cell-based; settings: Homo sapiens, U-87 MG, 120 h, 5 days
Protocol: as §2

D54MG = test: 5-FU toxicity, MTS assay; format: cell-based; settings: Homo sapiens, 120 h, 5 days
Protocol: as §2

ASPC-1 = test: 5-FU toxicity, MTS assay; format: cell-based; settings: Homo sapiens, ASPC1, 120 h, 5 days
Protocol: as §2

U251MG = test: 5-FU toxicity, MTS assay; format: cell-based; settings: Homo sapiens, U-251, 120 h, 5 days
Protocol: as §2

BXPC-3 = test: 5-FU toxicity, MTS assay; format: cell-based; settings: Homo sapiens, 120 h, 5 days
Protocol: as §2

`Nc1nc(=O)[nH]cc1F` [5-FC, 5-fluorocytosine] was tested, and the “Survival 20%” value ([1]; Table 6) was 61, the “Survival Median” value ([1]; Table 6) was 50 and the “Survival 20%” value ([1]; Table 8) was 34. For the same molecule, the “Survival Median” value ([1]; Table 8) was 34, the “Survival 20%” value ([1]; Table 11) was 60 and the “Survival Median” value ([1]; Table 11) was 57. For the same molecule, the median survival ([1]; U87MG, no virus/5-FC) was 57 days, the median survival [2] was 23 days and the “Survival 20%” value [3] was 30. The “Survival Median” value [3] was 29, the cytotoxicity [4] was “no detectable cytotoxicity” and the median survival time ([5]; 5-FC) was 17 days. The median survival time ([5]; 5-FC plus radiation) was 30 days, the “survival SF50” value ([5]; FIG. 19, mock-infected, 5-FC) was 23 days and the survival ([5]; preliminary study, mock-infected, 5-FC) was 13 days.
`O=c1[nH]cc(F)c(=O)[nH]1` [5-FU, 5-fluorouracil] gave an IC20 (U118MG) of 0.24 µg/mL (≈ 1.85 µM), an IC50 (U118MG) of 1.06 µg/mL (≈ 8.15 µM) and an IC80 (U118MG) of 61.5 µg/mL (≈ 473 µM). The IC20 (U87MG) was 0.37 µg/mL (≈ 2.84 µM), the IC50 (U87MG) was 1.06 µg/mL (≈ 8.15 µM) and the IC80 (U87MG) was 14 µg/mL (≈ 108 µM). For the same molecule, the IC20 (D54MG) was 0.33 µg/mL (≈ 2.54 µM), the IC50 (D54MG) was 1.1 µg/mL (≈ 8.46 µM) and the IC80 (D54MG) was 8.53 µg/mL (≈ 65.6 µM). For the same molecule, the IC20 (ASPC-1) was 0.04 µg/mL (≈ 0.308 µM), the IC50 (ASPC-1) was 1.58 µg/mL (≈ 12.1 µM) and the IC80 (ASPC-1) was 39.4 µg/mL (≈ 303 µM). For the same molecule, the IC20 (U251MG) was 0.07 µg/mL (≈ 0.538 µM), the IC50 (U251MG) was 0.38 µg/mL (≈ 2.92 µM) and the IC80 (U251MG) was 3.81 µg/mL (≈ 29.3 µM). For the same molecule, the IC20 (BXPC-3) was 0.01 µg/mL (≈ 0.0769 µM), the IC50 (BXPC-3) was 0.04 µg/mL (≈ 0.308 µM) and the IC80 (BXPC-3) was 0.69 µg/mL (≈ 5.3 µM).
